Where two headings read alike, the source gives them in different places.
Columns and labels:
Format in all cases: cell-based
[1] = tested on: MDA-MB-231 (breast cancer); test: Antiproliferative activity (CCK-8 cell viability), MDA-MB-231; details: Homo sapiens, 72 h, read-out: Antiproliferative activity in cancerous cells, MDA-MB-231 (inhibition of cell growth); for inhibition at 3.3 µM: Compound concentration: 3.3 μM; for inhibition at 10 µM: Compound concentration: 10 μM
How it was run: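 In this CCK-8 viability assay, MDA-MB-231 cells maintained in Dulbecco's modified Eagle's medium containing 10% fetal bovine serum were placed in 96-well plates (2,000-5,000 cells/well) and treated with compound for 72 h at 37° C. A 4 h incubation with 10 μL CCK-8 followed, plates were read at 450 nm, and viability was expressed against DMSO vehicle wells across replicates.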

[2] = tested on: HepG2 (liver cancer); test: Antiproliferative activity (CCK-8 cell viability), HepG2; details: Homo sapiens, 72 h; for inhibition at 3.3 µM: Compound concentration: 3.3 μM; for inhibition at 10 µM: Compound concentration: 10 μM; for inhibition at 30 µM: Compound concentration: 30 μM
How it was run: (§1)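 Cells were seeded at 2,000-5,000/well (HeLa in MEM, HepG2 and SW480 in DMEM, A549 in F-12K, all with 10% FBS) and treated with compound at 3.3, 10 or 30 μM for 72 h at 37° C. CCK-8 was added for 4 h, absorbance was read at 450 nm, and viability was expressed relative to DMSO-treated wells.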

[3] = tested on: SW480 (colon cancer); test: Antiproliferative activity (CCK-8 cell viability), SW480; details: Homo sapiens, 72 h; for inhibition at 3.3 µM: Compound concentration: 3.3 μM; for inhibition at 10 µM: Compound concentration: 10 μM; for inhibition at 30 µM: Compound concentration: 30 μM
How it was run: as §1

[4] = tested on: B16F10 (malignant melanoma); test: Antiproliferative activity (CCK-8 cell viability), B16F10; details: Mus musculus, 72 h, read-out: Antiproliferative activity in cancerous cells, B16F10 (inhibition of cell growth); for inhibition at 3.3 µM: B16-F10, Compound concentration: 3.3 μM; for inhibition at 10 µM: B16-F10, Compound concentration: 10 μM
How it was run: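 Attached B16F10 cells in 96-well plates were incubated with compound at 37° C for 72 h, followed by 10 μL CCK-8 reagent per well and a further 4 h incubation. A multi-well plate reader measured absorbance at 450 nm. Percent viability across replicates was calculated against DMSO vehicle-treated cells.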

[5] = tested on: A431 (epidermoid carcinoma); test: Antiproliferative activity (CCK-8 cell viability), A431; details: Homo sapiens, 72 h; for inhibition at 3.3 µM: A-431, Compound concentration: 3.3 μM; for inhibition at 10 µM: A-431, Compound concentration: 10 μM; for inhibition at 30 µM: A-431, Compound concentration: 30 μM
How it was run: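 Cell viability of compound-treated A431 cells was measured with a Cell Counting Kit-8. Each well received 10 μL of CCK-8 after 72 h of compound exposure, followed by 4 h incubation at 37° C. and a 450 nm plate-reader measurement. Percent viability was calculated relative to DMSO controls across replicates.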

[6] = tested on: A549 (lung adenocarcinoma); test: Antiproliferative activity (CCK-8 cell viability), A549; details: Homo sapiens, 72 h; for inhibition at 3.3 µM: Compound concentration: 3.3 μM; for inhibition at 10 µM: Compound concentration: 10 μM; for inhibition at 30 µM: Compound concentration: 30 μM
How it was run: as §1

[7] = tested on: HeLa (cervical cancer); test: Antiproliferative activity (CCK-8 cell viability), HeLa; details: Homo sapiens, 72 h, read-out: Antiproliferative activity in cancerous cells, HELA (inhibition of cell growth); for inhibition at 3.3 µM: Compound concentration: 3.3 μM; for inhibition at 10 µM: Compound concentration: 10 μM
How it was run: as §1

[8] = read-out: Antiproliferative activity in cancerous cells, HepG2 (inhibition of cell growth)
[9] = read-out: Antiproliferative activity in cancerous cells, SW480 (inhibition of cell growth)
[10] = read-out: Antiproliferative activity in cancerous cells, A431 (inhibition of cell growth)
[11] = read-out: Antiproliferative activity in cancerous cells, A549 (inhibition of cell growth)

Row | Compound | inhibition at 3.3 µM [1] | inhibition at 10 µM [1] | inhibition at 3.3 µM [2, 8] | inhibition at 10 µM [2, 8] | inhibition at 3.3 µM [3, 9] | inhibition at 10 µM [3, 9] | inhibition at 3.3 µM [4] | inhibition at 10 µM [4] | inhibition at 3.3 µM [5, 10] | inhibition at 10 µM [5, 10] | inhibition at 3.3 µM [6, 11] | inhibition at 10 µM [6, 11] | inhibition at 3.3 µM [7] | inhibition at 10 µM [7] | other results
1 | COc1ccc2c(c1)C(CC(=O)O)=C(C)/C2=C/c1ccc(COc2ccc(F)cc2)cc1 [B54, (Z)-2-(1-(4-((4-Fluorophenoxy)methyl)benzylidene)-5-methoxy-2-methyl-1H-inden-3-yl)acetic acid] | 30 to 50% | ≥ 50% | < 30% | < 30% | < 30% | < 30% | ≥ 50% | ≥ 50% | 30 to 50% | 30 to 50% | < 30% | 30 to 50% | ≥ 50% | ≥ 50% | inhibition at 30 µM ([2]; read-out: Antiproliferative activity in cancerous cells, HepG2): 30 to 50%; inhibition at 30 µM ([3]; read-out: Antiproliferative activity in cancerous cells, SW480): < 30%; inhibition at 30 µM ([5]; read-out: Antiproliferative activity in cancerous cells, A431): 30 to 50%; inhibition at 30 µM ([6]; read-out: Antiproliferative activity in cancerous cells, A549): 30 to 50%
2 | CC1=C(CC(=O)O)c2cc(F)ccc2/C1=C\c1cccc(OC2CCC(F)(F)CC2)c1 [C206, (Z)-2-(1-(3-((4,4-Difluorocyclohexyl)oxy)benzylidene)-5-fluoro-2-methyl-1H-inden-3-yl)acetic acid] | ≥ 50% | ≥ 50% | < 30% | ≥ 50% | 30 to 50% | ≥ 50% | ≥ 50% | ≥ 50% | 30 to 50% | 30 to 50% | < 30% | ≥ 50% | < 30% | ≥ 50% | inhibition at 30 µM ([1]; Compound concentration: 30 μM): ≥ 50%; inhibition at 30 µM [2, 8]: ≥ 50%; inhibition at 30 µM [3, 9]: ≥ 50%; inhibition at 30 µM ([4]; B16-F10, Compound concentration: 30 μM): ≥ 50%; inhibition at 30 µM [5, 10]: ≥ 50%; inhibition at 30 µM [6, 11]: ≥ 50%; inhibition at 30 µM ([7]; Compound concentration: 30 μM): ≥ 50%
3 | CC1=C(CC(=O)O)c2cc(Cl)ccc2/C1=C\c1ccc(COCc2ccc(F)cc2)cc1 [B148, (Z)-2-(5-Chloro-1-(4-(((4-fluorobenzyl)oxy)methyl)benzylidene)-2-methyl-1H-inden-3-yl)acetic acid] | 30 to 50% | 30 to 50% | < 30% | ≥ 50% | ≥ 50% | ≥ 50% | < 30% | < 30% | ≥ 50% | ≥ 50% | 30 to 50% | ≥ 50% | 30 to 50% | ≥ 50% | 
4 | CC1=C(CC(=O)O)c2c(Cl)cc(Cl)cc2/C1=C\c1ccc(Oc2ccc(F)cc2)cc1 [C87, (Z)-2-(4,6-Dichloro-1-(4-(4-fluorophenoxy)benzylidene)-2-methyl-1H-inden-3-yl)acetic acid] | ≥ 50% | ≥ 50% | < 30% | ≥ 50% | < 30% | ≥ 50% | ≥ 50% | ≥ 50% | ≥ 50% | ≥ 50% | < 30% | ≥ 50% | < 30% | ≥ 50% | 

From US20260184663A1, “INDENE COMPOUNDS, PHARMACEUTICAL COMPOSITIONS THEREOF, AND THEIR THERAPEUTIC APPLICATIONS” (NucMito Pharmaceuticals co. Ltd., priority 2022, published 2026)
